According to patent US8088890B2, “Peptides and peptidomimetic compounds, the manufacturing thereof as well as their use for preparing a therapeutically and/or preventively active pharmaceutical composition” (Fibrex Medical Research & Development GmbH, priority 2008, dated 2012):

System: RhoA
Assay: thrombin induced RhoA activation in human umbilical vein endothelial cell (HUVEC) culture (Rho pull-down, Western blot)
Assay type: cell-based
Conditions: 5 U/ml thrombin alone, 5 min
Experimental: The biological effect of the compounds was established in a model thrombin induced RhoA activation in human umbilical vein endothelial cell (HUVEC) culture.
HUVEC are grown to confluence under standard conditions. Before induction of Rho activity HUVEC were starved for 4 h by using IMDM (Gibco) without growth factor and serum supplements. After the starvation period 5 U/ml Thrombin (Calbiochem) or 5 U thrombin plus 50 μg/ml of test compound are added to the starvation medium for 1, 5 and 10 min. Active RhoA was isolated using Rho Assay Reagent from Upstate according to manufactures instructions. Isolates were separated on a 15% polyacrylamide gel and blotted on Nitrocellulose-Membrane (Bio-Rad). RhoA was detected by using Anti-Rho (-A, -B, -C), clone55 from Upstate (1:500).

thrombin
Relative RhoA stimulation compared to unstimulated control: 6.2
